Laboratory results: ChEMBL document CHEMBL1148901, “07H239-A, a new cytotoxic eremophilane sesquiterpene from the marine-derived Xylariaceous fungus LL-07H239” (J Nat Prod, 2004)
Values after ≈ are worked out from the molar mass of the structure shown.

Tests used:
Format in all cases: functional, cell-based
LX-1 = assay: Cytotoxicity against human LX1 cells
[1] = Cytotoxicity against human A2780DDP cells
SK-BR-3 = assay: Cytotoxicity against human SK-BR-3 cells
CCRF-CEM = assay: Cytotoxicity against human CCRF-CEM cells
[2] = Cytotoxicity against human CCL228 cells
[3] = Cytotoxicity against human LOX cells
DU-145 = assay: Cytotoxicity against human DU145 cells
LNCaP = assay: Cytotoxicity against human LNCAP cells
A549 = assay: Cytotoxicity against human A549 cells
SW948 = assay: Cytotoxicity against human SW948 cells
CX-1 = assay: Cytotoxicity against human CX-1 cells
HCT-15 = assay: Cytotoxicity against human HCT15 cells
[4] = Cytotoxicity against human […] cells
SW-620 = assay: Cytotoxicity against human SW620 cells
[5] = Cytotoxicity against human LS 174T cells; conditions: LS174T
COLO 205 = assay: Cytotoxicity against human COLO205 cells
[6] = Cytotoxicity against human A2780S cells; conditions: A2780
Caco-2 = assay: Cytotoxicity against human Caco-2 cells
MCF7 = assay: Cytotoxicity against human MCF7 cells
T47D = assay: Cytotoxicity against human T47D cells
[7] = Cytotoxicity against human NEC cells
PC-3 = assay: Cytotoxicity against human PC3 cells

Which IC50 (LX-1) does the source give for `C=C(C=O)[C@@H]1C[C@@]2(C)C(=CC1=O)[C@H](OC(=O)/C=C/C=C/C(C)CC(C)CC)CC[C@@H]2C(=O)O` (relative stereo) here?
The IC50 was 4.16 µg/mL (≈ 9.11 µM).

What about the IC50 [1] of the same molecule?
The IC50 was 3.01 µg/mL (≈ 6.59 µM).

And the IC50 (SK-BR-3)?
Its IC50 is 3.53 µg/mL (≈ 7.73 µM).

What about the IC50 (CCRF-CEM) of the same molecule?
Its IC50 is 0.88 µg/mL (≈ 1.93 µM).

What about the IC50 [2] of the same molecule?
Its IC50 is 3.04 µg/mL (≈ 6.66 µM).

What about the IC50 [3] of the same molecule?
The IC50 was 3.43 µg/mL (≈ 7.51 µM).

And the IC50 (DU-145)?
Its IC50 is 3.06 µg/mL (≈ 6.7 µM).

And the IC50 (LNCaP)?
Its IC50 is 3.06 µg/mL (≈ 6.7 µM).

What about the IC50 (A549) of the same molecule?
The IC50 was 3.95 µg/mL (≈ 8.65 µM).

And the IC50 (SW948)?
The IC50 was 3.09 µg/mL (≈ 6.77 µM).

What about the IC50 (CX-1) of the same molecule?
The IC50 was 3.21 µg/mL (≈ 7.03 µM).

And the IC50 (HCT-15)?
Its IC50 is 4.08 µg/mL (≈ 8.94 µM).

What about the IC50 [4] of the same molecule?
Its IC50 is 2.47 µg/mL (≈ 5.41 µM).

What about the IC50 (SW-620) of the same molecule?
The IC50 was 3.6 µg/mL (≈ 7.88 µM).

And the IC50 [5]?
The IC50 was 3.29 µg/mL (≈ 7.21 µM).

And the IC50 (COLO 205)?
Its IC50 is 3.41 µg/mL (≈ 7.47 µM).

What about the IC50 [6] of the same molecule?
Its IC50 is 3.09 µg/mL (≈ 6.77 µM).

What about the IC50 (Caco-2) of the same molecule?
The IC50 was 3.25 µg/mL (≈ 7.12 µM).

What about the IC50 (MCF7) of the same molecule?
The IC50 was 2.83 µg/mL (≈ 6.2 µM).

And the IC50 (T47D)?
Its IC50 is 3.5 µg/mL (≈ 7.67 µM).

And the IC50 [7]?
The IC50 was 3.38 µg/mL (≈ 7.4 µM).

And the IC50 (PC-3)?
Its IC50 is 3.59 µg/mL (≈ 7.86 µM).
